From US20060282132A1, “Photodynamic therapy equipment, method for controlling photodynamic therapy equipment and method of photodynamic method” (KEIO UNIVERSITY, priority 2003, published 2006)

Assays:
[1] = tested on: mouse derived macrophage like cell J774.1
Description: With regard to arteriosclerotic athero model, mouse derived macrophage like cell J774.1 was used. PDT was performed after contacting with the second generation photosensitive substance ATX-S10 (ATX-S10 Na(II) (K.K. Hikari Chemical Lab.)) with good excretion, concentration of 6 μg/ml for 24 hours.
Irradiation of the light was performed with the light source: excimer dye laser (EDL-1, Hamamatsu Photonix Co., wavelength 670 nm, pulse width 10 ns); pulse energy density 1.2 to 9.5 mJ/cm^2 (corresponding to peak intensity […]); and repetition frequency 5 to 80 Hz. PDT effect as evaluated by a rate of cell death using MTT after performing for 24 hours.
Measurement was performed in concentration of administered photosensitive substance at 25 μg/ml and 50 μg/ml.

[2] = concentration 6 μg/ml

Question: With C=Cc1c(C)c2cc3nc(cc4[nH]c(cc5nc(cc1[nH]2)C(C)=C5CCC(=O)NC(CC(=O)[O-])C(=O)[O-])c(CCC(=O)NC(CC(=O)[O-])C(=O)[O-])c4C)C(C)(O)/C3=C\C=NO.[Na+].[Na+].[Na+].[Na+] (stereo not shown) [ATX-S10, Iminochlorin aspartic acid derivative] as the compound, how does the “PDT effect (rate of cell death)” value ([1]; 6 μg/ml for 24 hours, excimer dye laser 670 nm, pulse width 10 ns, high pulse energy density (high peak intensity), repetition frequency 5 to 80 Hz, MTT after 24 hours) read?
Answer: PDT effect almost disappeared

Question: And the “rate of cell death at maximum” value ([1]; 6 μg/ml for 24 hours, excimer dye laser 670 nm, pulse width 10 ns, low pulse energy density (low peak intensity), repetition frequency 5 to 80 Hz, MTT after 24 hours)?
Answer: ≤ 70%

Question: And the “rate of cell death with changing irradiation energy density” value ([1]; 25 μg/ml and 50 μg/ml, same irradiation energy density)?
Answer: rate of cell death is different, if the concentration of photosensitive substance is different

Question: What about the “changes of absorption (bleaching) with changing irradiation energy density” value [2] of the same compound?
Answer: depends on total irradiation energy (J/cm^2) and not on peak intensity
